Series [1] has as its system Streptococcus pyogenes SSI-9. Description: Antibacterial activity assay of bead-derived peptides (three concentrations). The series is classed as cell-based. Also on record: key: +++: inhibition by the 640-fold diluted peptide solution; ++: inhibition by the 160-fold diluted solution; +: inhibition by the 40-fold diluted solution; -: no inhibition. The following applies: S. pyogenes, bead-derived peptide solution, three concentrations. A digest of the protocol: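 First, each peptide stock was diluted 4- and 16-fold in DMSO; next, the three solutions were mixed with S. pyogenes SSI-9 suspension (2 × 10^5 CFU) in cation-adjusted Mueller Hinton Broth plus 5% laked horse blood; finally, plates stood 18 h at 37 °C before checking for grown-cell precipitation.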

Series [2] concerns P388 mouse leukemia cells. The following applies: 92 h. A digest of the protocol: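 Peptide stocks diluted 250× in growth medium; P388 cells 1 × 10^4 cells/mL final; 37 °C, 5% CO2, 92 h. WST-1 + 1-methoxy PMS, 4 h, A415. Output: % viability.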
Series [3] in a line: H+/Na+ transport assay of bead-derived peptides (one-point).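 Further: relative to parent gramicidin A activity set to 1.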 In kind it is biochemical. The note with it: bead-derived peptide solution, EYPC/EYPG LUVs. The arrangement: key: relative activity; mean of two control wells = 1.00. The method, boiled down:
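One-point screen: peptide + pyranine-loaded LUVs, 30 min RT with vortexing, 96-well. Read-out is fluorescence intensity scaled as 100 × (Ix – I0)/(Imax – I0). Imax from Triton X-100, I0 from untreated vesicles, and the mean of the two control wells is set to 1.00.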

The structures appear in SMILES notation. Where a SMILES comes first, the peptide text is derived from it. [ ]: non-standard residue; d: D form. The star is where a group is joined. NHCH2CH2OH = OCCN*; For = O=C*

On to `CC(C)C[C@@H](NC(=O)[C@H](Cc1c[nH]c2ccccc12)NC(=O)[C@H](NC(=O)[C@H](Cc1c[nH]c2ccccc12)NC(=O)[C@H](NC(=O)[C@H](Cc1c[nH]c2ccccc12)NC(=O)[C@@H](CC(C)C)NC(=O)[C@@H](NC(=O)[C@H](NC(=O)[C@H](C)NC(=O)[C@H](NC(=O)[C@H](C)NC(=O)CNC(=O)[C@@H](NC=O)C(C)C)[C@H](C)O)C(C)C)C(C)C)C(C)C)C(C)C)C(=O)N[C@@H](Cc1c[nH]c2ccccc12)C(=O)NCCO` [compound 10500] (For-VGA[dT]A[dV]V[dL]W[dV]W[dV]W[dL]W-NHCH2CH2OH), for which, in series [1], the antibacterial activity result is reported as “-”. Moreover, the cell viability/% in series [2] came out at 100.0%. Besides, in series [3], the “H+/Na+ transport activity normalized against the value of 1 (1.00)” value (“H+/Na+ transport activity normalized” for short) is listed as 1.14.
For the compound `CC(C)C[C@@H](NC(=O)[C@H](Cc1c[nH]c2ccccc12)NC(=O)[C@H](NC(=O)[C@H](Cc1c[nH]c2ccccc12)NC(=O)[C@@H](CC(C)C)NC(=O)[C@H](Cc1c[nH]c2ccccc12)NC(=O)[C@@H](CC(C)C)NC(=O)[C@@H](NC(=O)[C@H](NC(=O)[C@H](C)NC(=O)[C@H](NC(=O)[C@H](C)NC(=O)CNC(=O)[C@@H](NC=O)C(C)C)C(C)C)C(C)C)C(C)C)[C@H](C)O)C(=O)N[C@@H](Cc1c[nH]c2ccccc12)C(=O)NCCO` [compound 10516] (For-VGA[dV]A[dV]V[dL]W[dL]W[dT]W[dL]W-NHCH2CH2OH), in series [1], the antibacterial activity result is listed as “-”. The compound also returned a cell viability/% in series [2] of 100.0%. Further, the “H+/Na+ transport activity normalized” value in series [3] came out at 1.10.
Consider `CC(C)C[C@@H](NC(=O)[C@H](C)NC(=O)[C@H](NC(=O)[C@H](C)NC(=O)CNC(=O)[C@@H](NC=O)C(C)C)C(C)C)C(=O)N[C@H](C(=O)N[C@@H](C(=O)N[C@@H](Cc1c[nH]c2ccccc12)C(=O)N[C@@H](C(=O)N[C@@H](Cc1c[nH]c2ccccc12)C(=O)N[C@H](CC(C)C)C(=O)N[C@@H](Cc1c[nH]c2ccccc12)C(=O)N[C@H](CC(C)C)C(=O)N[C@@H](Cc1c[nH]c2ccccc12)C(=O)NCCO)[C@H](C)O)[C@H](C)O)C(C)C` [compound 10517] (For-VGA[dV]A[dL]V[dT]W[dT]W[dL]W[dL]W-NHCH2CH2OH), for which the antibacterial activity result in series [1] is “-”. The compound further returned a cell viability/% in series [2] of 100.0%. The “H+/Na+ transport activity normalized” value in series [3] is listed as 1.05.
Turning to `CC(C)C[C@@H](NC(=O)[C@H](C)NC(=O)CNC(=O)[C@@H](NC=O)C(C)C)C(=O)N[C@@H](C)C(=O)N[C@H](CC(C)C)C(=O)N[C@H](C(=O)N[C@@H](C(=O)N[C@@H](Cc1c[nH]c2ccccc12)C(=O)N[C@@H](C(=O)N[C@@H](Cc1c[nH]c2ccccc12)C(=O)N[C@@H](C(=O)N[C@@H](Cc1c[nH]c2ccccc12)C(=O)N[C@@H](C(=O)N[C@@H](Cc1c[nH]c2ccccc12)C(=O)NCCO)C(C)C)C(C)C)C(C)C)C(C)C)C(C)C` [compound 10536] (For-VGA[dL]A[dL]V[dV]W[dV]W[dV]W[dV]W-NHCH2CH2OH), the antibacterial activity result in series [1] is “+”. For the same compound, the cell viability/% in series [2] turned out to be 100.0%. In addition, the “H+/Na+ transport activity normalized” value in series [3] stood at 1.21.
With `CC(C)C[C@@H](NC(=O)[C@H](C)NC(=O)CNC(=O)[C@@H](NC=O)C(C)C)C(=O)N[C@@H](C)C(=O)N[C@H](CC(C)C)C(=O)N[C@H](C(=O)N[C@@H](C(=O)N[C@@H](Cc1c[nH]c2ccccc12)C(=O)N[C@@H](C(=O)N[C@@H](Cc1c[nH]c2ccccc12)C(=O)N[C@@H](C(=O)N[C@@H](Cc1c[nH]c2ccccc12)C(=O)N[C@H](CC(C)C)C(=O)N[C@@H](Cc1c[nH]c2ccccc12)C(=O)NCCO)C(C)C)[C@H](C)O)C(C)C)C(C)C` [compound 10542] (For-VGA[dL]A[dL]V[dV]W[dT]W[dV]W[dL]W-NHCH2CH2OH), the antibacterial activity result in series [1] is “-”. Further, the cell viability/% in series [2] was determined as 100.0%. In series [3], the “H+/Na+ transport activity normalized” value is given as 1.02.
Regarding `CC(C)C[C@@H](NC(=O)[C@H](C)NC(=O)[C@H](NC(=O)[C@H](C)NC(=O)CNC(=O)[C@@H](NC=O)C(C)C)C(C)C)C(=O)N[C@H](C(=O)N[C@@H](C(=O)N[C@@H](Cc1c[nH]c2ccccc12)C(=O)N[C@H](CC(C)C)C(=O)N[C@@H](Cc1c[nH]c2ccccc12)C(=O)N[C@H](CC(C)C)C(=O)N[C@@H](Cc1c[nH]c2ccccc12)C(=O)N[C@H](CC(C)C)C(=O)N[C@@H](Cc1c[nH]c2ccccc12)C(=O)NCCO)C(C)C)C(C)C` [compound 10593] (For-VGA[dV]A[dL]V[dV]W[dL]W[dL]W[dL]W-NHCH2CH2OH), in series [1], the antibacterial activity entry is given as “+”. The same compound registered a cell viability/% in series [2] of 38.5%. Also, the “H+/Na+ transport activity normalized” value in series [3] was 1.10.
For `CC(C)C[C@@H](NC(=O)[C@H](Cc1c[nH]c2ccccc12)NC(=O)[C@@H](CC(C)C)NC(=O)[C@H](Cc1c[nH]c2ccccc12)NC(=O)[C@H](NC(=O)[C@H](Cc1c[nH]c2ccccc12)NC(=O)[C@H](NC(=O)[C@@H](NC(=O)[C@H](NC(=O)[C@H](C)NC(=O)[C@H](NC(=O)[C@H](C)NC(=O)CNC(=O)[C@@H](NC=O)C(C)C)C(C)C)C(C)C)C(C)C)C(C)C)C(C)C)C(=O)N[C@@H](Cc1c[nH]c2ccccc12)C(=O)NCCO` [compound 10649] (For-VGA[dV]A[dV]V[dV]W[dV]W[dL]W[dL]W-NHCH2CH2OH), the antibacterial activity entry in series [1] is reported as “++”. In addition, in series [2], the cell viability/% amounted to 100.0%. The “H+/Na+ transport activity normalized” value in series [3] is given as 1.19.
On to `CC(C)C[C@@H](NC(=O)[C@H](Cc1c[nH]c2ccccc12)NC(=O)[C@H](NC(=O)[C@H](Cc1c[nH]c2ccccc12)NC(=O)[C@H](NC(=O)[C@@H](NC(=O)[C@H](NC(=O)[C@H](C)NC(=O)[C@H](NC(=O)[C@H](C)NC(=O)CNC(=O)[C@@H](NC=O)C(C)C)[C@H](C)O)C(C)C)C(C)C)C(C)C)C(C)C)C(=O)N[C@@H](Cc1c[nH]c2ccccc12)C(=O)N[C@@H](C(=O)N[C@@H](Cc1c[nH]c2ccccc12)C(=O)NCCO)C(C)C` [compound 10653] (For-VGA[dT]A[dV]V[dV]W[dV]W[dL]W[dV]W-NHCH2CH2OH), for which, in series [1], the antibacterial activity entry is “-”. Also, in series [2], the cell viability/% is 44.1%. Further, the “H+/Na+ transport activity normalized” value in series [3] is listed as 1.04.
For the compound `CC(C)C[C@@H](NC(=O)[C@H](Cc1c[nH]c2ccccc12)NC(=O)[C@@H](CC(C)C)NC(=O)[C@H](Cc1c[nH]c2ccccc12)NC(=O)[C@H](NC(=O)[C@H](Cc1c[nH]c2ccccc12)NC(=O)[C@@H](CC(C)C)NC(=O)[C@@H](NC(=O)[C@H](NC(=O)[C@H](C)NC(=O)[C@H](NC(=O)[C@H](C)NC(=O)CNC(=O)[C@@H](NC=O)C(C)C)C(C)C)C(C)C)C(C)C)C(C)C)C(=O)N[C@@H](Cc1c[nH]c2ccccc12)C(=O)NCCO` [compound 10661] (For-VGA[dV]A[dV]V[dL]W[dV]W[dL]W[dL]W-NHCH2CH2OH), the antibacterial activity entry in series [1] was “+”. In series [2], this compound had a cell viability/% of 39.9%. The “H+/Na+ transport activity normalized” value in series [3] is 1.03.
For the compound `CC(C)C[C@@H](NC(=O)[C@H](Cc1c[nH]c2ccccc12)NC(=O)[C@H](NC(=O)[C@H](Cc1c[nH]c2ccccc12)NC(=O)[C@H](NC(=O)[C@H](Cc1c[nH]c2ccccc12)NC(=O)[C@@H](CC(C)C)NC(=O)[C@@H](NC(=O)[C@H](NC(=O)[C@H](C)NC(=O)[C@H](NC(=O)[C@H](C)NC(=O)CNC(=O)[C@@H](NC=O)C(C)C)C(C)C)C(C)C)C(C)C)C(C)C)C(C)C)C(=O)N[C@@H](Cc1c[nH]c2ccccc12)C(=O)NCCO` [compound 10668] (For-VGA[dV]A[dV]V[dL]W[dV]W[dV]W[dL]W-NHCH2CH2OH), the antibacterial activity result in series [1] was “+”. This compound came in with a cell viability/% in series [2] of 57.1%. For the same compound, the “H+/Na+ transport activity normalized” value in series [3] was 1.09.
On to `CNC(=O)C[C@@H](NC(=O)[C@@H](NC(=O)[C@H](NC(=O)[C@H](C)NC(=O)[C@@H](CC(C)C)NC(=O)[C@H](C)NC(=O)CNC(=O)[C@@H](NC=O)C(C)C)C(C)C)C(C)C)C(=O)N[C@@H](Cc1c[nH]c2ccccc12)C(=O)N[C@H](CC(C)C)C(=O)N[C@@H](Cc1c[nH]c2ccccc12)C(=O)N[C@@H](C(=O)N[C@@H](Cc1c[nH]c2ccccc12)C(=O)N[C@H](CC(C)C)C(=O)N[C@@H](Cc1c[nH]c2ccccc12)C(=O)NCCO)C(C)C` [compound 10669] (For-VGA[dL]A[dV]V[dD](NHMe)W[dL]W[dV]W[dL]W-NHCH2CH2OH), for which the antibacterial activity result in series [1] is “-”. For the same compound, in series [2], the cell viability/% amounted to 55.2%. Also, the “H+/Na+ transport activity normalized” value in series [3] was 1.11.
Regarding `CNC(=O)C[C@@H](NC(=O)[C@H](Cc1c[nH]c2ccccc12)NC(=O)[C@@H](CC(C)C)NC(=O)[C@H](Cc1c[nH]c2ccccc12)NC(=O)[C@H](NC(=O)[C@H](Cc1c[nH]c2ccccc12)NC(=O)[C@H](NC(=O)[C@@H](NC(=O)[C@@H](CC(C)C)NC(=O)[C@H](C)NC(=O)[C@@H](CC(C)C)NC(=O)[C@H](C)NC(=O)CNC(=O)[C@@H](NC=O)C(C)C)C(C)C)C(C)C)C(C)C)C(=O)N[C@@H](Cc1c[nH]c2ccccc12)C(=O)NCCO` [compound 10678] (For-VGA[dL]A[dL]V[dV]W[dV]W[dL]W[dD](NHMe)W-NHCH2CH2OH), the antibacterial activity entry in series [1] is “-”. In series [2], this compound gave a cell viability/% of 76.0%. Besides, the “H+/Na+ transport activity normalized” value in series [3] stood at 1.10.

(Values after article PMC7531004, “Discovery of gramicidin A analogues with altered activities by multidimensional screening of a one-bead-one-compound library” (Nature Communications, 2020).)
